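Values below derive from 48-hour exposures of cells grown in 96-well plates, with endpoints linearly interpolated between the two concentrations bracketing the appropriate inhibition level. GI50 marks 50% less growth.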 The source made the active and inactive calls. No stated cut-off is given here; in the data, active = GI50 up to about 1.1 µM and inactive = higher.
Experiments:
Assay in all cases: NCI-60 cell line screen, 48 h
SNB-75 = test system: SNB-75
CAKI-1 = test system: CAKI-1
ACHN = test system: ACHN
HL-60 = test system: HL-60
NCI-H522 = test system: NCI-H522
SF-295 = test system: SF-295
NCI-H23 = test system: NCI-H23
NCI-H460 = test system: NCI-H460
SK-OV-3 = test system: SK-OV-3
OVCAR-5 = test system: OVCAR-5
HOP-62 = test system: HOP-62
UACC-257 = test system: UACC-257
OVCAR-8 = test system: OVCAR-8
SNB-19 = test system: SNB-19
DLD-1 = test system: DLD-1
HOP-18 = test system: HOP-18
DMS-114 = test system: DMS-114
RXF 631 = test system: RXF 631
SN12C = test system: SN12C
SNB-78 = test system: SNB-78

Measured: GI50

C=CCN1C(=O)/C(=C/c2ccccc2)N=C1SC1OC(COC(=O)c2ccccc2)C(OC(=O)c2ccccc2)C1OC(=O)c1ccccc1 (stereo unspecified)
inactive: SNB-75 > 100 µM | CAKI-1 97.9 µM | ACHN 30.3 µM | HL-60 32.8 µM | NCI-H522 10.4 µM | SF-295 > 100 µM | NCI-H23 > 100 µM | NCI-H460 > 100 µM | SK-OV-3 > 100 µM | OVCAR-5 44.3 µM | HOP-62 > 100 µM | UACC-257 25.7 µM | OVCAR-8 > 100 µM

Cc1cc(OCC(O)CO)ccc1Cl (stereo unspecified)
inactive: SNB-19 > 100 µM | SNB-75 87.3 µM | CAKI-1 > 100 µM | ACHN > 100 µM | HL-60 > 100 µM | NCI-H522 > 100 µM | SF-295 > 100 µM | NCI-H23 > 100 µM | DLD-1 > 100 µM | NCI-H460 > 100 µM | SK-OV-3 > 100 µM | OVCAR-5 > 100 µM | HOP-18 > 100 µM | HOP-62 > 100 µM | UACC-257 > 100 µM | DMS-114 > 100 µM | OVCAR-8 > 100 µM | RXF 631 > 100 µM | SN12C > 100 µM

N#CCCN(CCC#N)c1ccc(/C=C2\N=C(c3cc([N+](=O)[O-])ccc3Cl)N(NC(=O)CC(=O)Nc3ccccc3Cl)C2=O)cc1
inactive: SNB-19 > 100 µM | CAKI-1 > 100 µM | ACHN > 100 µM | NCI-H522 > 100 µM | SF-295 > 100 µM | NCI-H23 > 100 µM | DLD-1 > 100 µM | SK-OV-3 > 100 µM | OVCAR-5 26.5 µM | HOP-62 > 100 µM | DMS-114 > 100 µM | OVCAR-8 > 100 µM | SNB-78 > 100 µM | SN12C > 100 µM

CC/C(CC(=O)CCC(=O)Nc1ccc(C)c(C)c1)=N\NC(=O)c1cc2ccccc2cc1O
inactive: SNB-19 39.1 µM | CAKI-1 20.8 µM | ACHN 24.9 µM | HL-60 1.92 µM | SF-295 37.2 µM | NCI-H23 23.6 µM | DLD-1 13.4 µM | NCI-H460 23.6 µM | SK-OV-3 13.6 µM | OVCAR-5 31 µM | HOP-18 15.2 µM | HOP-62 26 µM | UACC-257 45.2 µM | DMS-114 32.9 µM | OVCAR-8 21.4 µM | RXF 631 69.5 µM | SNB-78 48.5 µM | SN12C 28.3 µM

COc1ccc(NC(=O)/C(=C/c2ccc(N(CCC#N)CCC#N)cc2)NC(=O)c2cc([N+](=O)[O-])ccc2Cl)cc1
inactive: SNB-19 > 100 µM | CAKI-1 26.2 µM | ACHN 10.1 µM | NCI-H522 4.27 µM | SF-295 19.6 µM | NCI-H23 > 100 µM | DLD-1 15.3 µM | SK-OV-3 > 100 µM | OVCAR-5 > 100 µM | HOP-18 > 100 µM | HOP-62 33.2 µM | OVCAR-8 38.9 µM | RXF 631 99.5 µM | SNB-78 > 100 µM | SN12C > 100 µM

COC(=N)C(C)C
inactive: SNB-19 > 100 µM | SNB-75 > 100 µM | CAKI-1 > 100 µM | ACHN > 100 µM | HL-60 > 100 µM | NCI-H522 > 100 µM | SF-295 > 100 µM | NCI-H23 > 100 µM | DLD-1 > 100 µM | NCI-H460 > 100 µM | SK-OV-3 > 100 µM | OVCAR-5 > 100 µM | HOP-62 > 100 µM | UACC-257 > 100 µM | DMS-114 > 100 µM | SNB-78 > 100 µM | SN12C > 100 µM
